{"source": "patent US10245351B2", "about": "“Malleable hydrogel hybrids made of self-assembled peptides and biocompatible polymers and uses thereof” (Technology Innovation Momentum Fund (Israel) Limited …, priority 2010, dated 2019)", "tested_on": "CHO (Chinese Hamster Ovaries) cells", "experiment": "Cells viability test (MTT), cells on top of hydrogel", "assay_type": "cell-based", "method": "To verify the ability of the hybrid hydrogels described herein to be used in biological applications, their biocompatibility was determined using an in vitro cell culture experiment. Three types of cells were cultivated on top of the hybrid hydrogels: CHO (Chinese Hamster Ovaries), fibroblasts and chondrocytes.\nCHO, fibroblasts and chondrocytes cells were grown in Dulbecco's Modified\nEagle Medium (DMEM) supplemented with 10% fetal calf serum, 100 U/ml penicillin, 100 U/ml streptomycin, and 2 mmol/liter L-glutamine (all from Beit Haemeck, Israel). Cells were maintained at 37° C. in a humidified atmosphere containing 5% CO2. Subconfluent cultures were harvested by trypsinization, counted, and diluted in specific cells' media to form a cell concentration of 10^6 cells/ml. The gels swelled overnight with 0.1 ml DMEM. The next day, DMEM was removed and […] of the CHO cells (10^5 cells) were placed on top of the hydrogel. After 1, 3 and 7 days of incubation at 37° C. the viability of the cells was determined using an MTT assay.\nThe cell viability was analyzed 1, 3 and 7 days post seeding. Cells seeded as monolayers with PBS were used as control. Cell viability was analyzed using an MTT assay. […]", "data": [{"substance": "hyaluronic acid [HA]", "values": [{"measurement": "viability, in words", "result": "high viability"}]}]}
